Reference: article PMC7751175, “Lateral Gene Transfer Acts As an Evolutionary Shortcut to Efficient C4 Biochemistry” (Molecular Biology and Evolution, 2020)

Tests used:
Assay in all cases: malate dehydrogenase-coupled NADH oxidation at […] nm; nonlinear regression
Conditions in all cases: co-substrate bicarbonate, 5 mM MgCl2, 50 mM Tris-HCl pH 7.4, 25 °C; read-out: KM(PEP)
[1] = test system: isoform 2, native co-opted ppc-1P6 PEPC (TPE1-10); format: biochemical, Alloteropsis semialata
[2] = test system: isoform 11, ppc-1P3_LGT:A PEPC (AUS1-01); format: biochemical, Alloteropsis semialata
[3] = test system: isoform 6, native co-opted ppc-1P3 PEPC (AANG4-8); format: biochemical, Alloteropsis angusta
[4] = test system: isoform 5, native co-opted ppc-1P3 PEPC (MAD1-03); format: biochemical, Alloteropsis semialata
[5] = test system: isoform 1, non-C4 ppc-1P6 PEPC (RSA5-03); format: biochemical, Alloteropsis semialata
[6] = test system: isoform 12, Donor_C ppc-1P3_C PEPC; format: biochemical, Setaria barbata
[7] = test system: isoform 8, ppc-1P3_LGT:M PEPC (A. cimicina); format: biochemical, Alloteropsis cimicina
[8] = test system: isoform 10, Donor_A ppc-1P3_A PEPC; format: biochemical, Themeda triandra
[9] = test system: isoform 7, Donor_M ppc-1P3_M PEPC; format: biochemical, Megathyrsus maximus

C=C(OP(=O)(O)O)C(=O)O [PEP]
Km [1]: 196 ± 12.9 µM | Km [2]: 699 ± 50.4 µM | Km [3]: 324 ± 23.3 µM | Km [4]: 188 ± 12.5 µM | Km [5]: 319 ± 33.5 µM | Km [6]: 612 ± 55.9 µM | Km [7]: 710 ± 47.2 µM | Km [8]: 687 ± 72.8 µM | Km [9]: 921 ± 99.1 µM
